Results reported in paper PMC9952391, “The Role of Acetyl Zingerone and Its Derivatives in Inhibiting UV-Induced, Incident, and Delayed Cyclobutane Pyrimidine Dimers” (Antioxidants, 2023).
Values joined by “and” are separate entries in the source; they are usually repeats but may differ in a detail not shown here. Equal values may be shown once.

Assays:
[1] = system: delayed (dark) CPDs (dCPDs) in Mel-a cells; test: dCPD assessment by DNA ELISA post ssUV, Mel-a; type: cell-based, mouse
From the text: (§1) For UV exposures, we used a “SOL-UV6 ultraviolet solar simulator” from Newport irradiators. It is equipped with a Xenon arc lamp where the output is varied using the integrated variable attenuator aperture, which provides the ability to vary the output from 10% to 100% of the maximum available solar constants. The output spectrum is flat from 320 nm to 400 nm and no values are below 300 nm. This is abbreviated as “ssUV” for “solar-simulated UV” throughout the text. Various cell types seeded at ~50% confluency, were treated with the AZ and analogs at concentrations mentioned in the data figures for 24–h. Cells at ~80–90% confluency (untreated controls), were washed twice with PBS and exposed to 18 kJ/m^2 of ssUV in minimal amount of PBS (ex. 2 mL PBS in a 60 mm cell culture dish) without any dish lid in place. […] The ssUV apparatus was monitored almost daily using UV meters for any emissions below 300 nm. The dose was decided based upon the 80–90% cell survival post UV exposure. After exposure, one time point was collected immediately to assess iCPDs, whereas more dishes were incubated in cell culture medium, inside the cell culture incubator, for various time points to be collected post UV to assess dCPDs. For dCPD induction, it is important that the cell culture incubator is not opened for at least 30 min (the first time point post UV) to avoid possible interference from the CO2/O2 ratio, which will be altered upon opening the incubator doors. Cells were collected by scraping and washed once with PBS, which was followed by DNA isolation using a Quick DNA miniprep Kit (Cat. D3024, Zymo Research, Irvine, CA, USA). CPDs were assessed using our previously established DNA ELISA protocols. In brief, ELISA was performed using mouse monoclonal Anti-CPD (Cat. CAC-NM-DND-001, Clone TDM-2, CosmoBio, Inc., Carlsbad, CA, USA). […] A measure of 50 µL of 2M H2SO4 was used to stop the reaction as soon as the color developed (5–10 min incubation in substrate), and OD was measured at 490 nm using a Synergy-2 multimode microplate reader (BioTek, Winooski, VT, USA).

[2] = system: incident CPDs (iCPDs) in HaCaT cells; test: iCPD assessment by DNA ELISA after ssUV, HaCaT; type: cell-based, human; conditions: various doses, Supplementary Figure S2A
From the text: as §1

[3] = system: Xpa, Xpc, Mitf, Xrcc1 expression in Mel-c; test: qPCR expression of NER pathway genes, Mel-c; type: cell-based, mouse; conditions: 24 h incubation
Description: (§2) Various cell types were collected 24-h post incubation with 200 µg/mL AZ and MBPD, with and without ssUV exposure. RNA was isolated using a Quick-RNA isolation kit (Cat. R1050, Zymo Research). The cDNA was prepared using a High-Capacity cDNA Reverse Transcription Kit (Cat. 4368814, ThermoFisher Scientific). The gene expression of XPA, XPC, and MITF genes was assessed using the following primers. β-actin was used as an internal control for normalizations and data analyses. F1-R1 and F2-R2 represents two primer pairs which were used in the qPCR experiments.

[4] = system: incident CPDs (iCPDs) in pigmented C57BL/6 melanocytes (Mel-a); test: iCPD assessment by DNA ELISA after ssUV, Mel-a; type: cell-based, mouse; conditions: for iCPD inhibition across doses: various doses up to 1 mg/mL, 24 h, Figure 4A
From the text: (§3) For UV exposures, we used a “SOL-UV6 ultraviolet solar simulator” from Newport irradiators. It is equipped with a Xenon arc lamp where the output is varied using the integrated variable attenuator aperture, which provides the ability to vary the output from 10% to 100% of the maximum available solar constants. The output spectrum is flat from 320 nm to 400 nm and no values are below 300 nm. This is abbreviated as “ssUV” for “solar-simulated UV” throughout the text. Various cell types seeded at ~50% confluency, were treated with the AZ and analogs at concentrations mentioned in the data figures for 24–h. Cells at ~80–90% confluency (untreated controls), were washed twice with PBS and exposed to 18 kJ/m^2 of ssUV in minimal amount of PBS (ex. 2 mL PBS in a 60 mm cell culture dish) without any dish lid in place. […] The ssUV apparatus was monitored almost daily using UV meters for any emissions below 300 nm. The dose was decided based upon the 80–90% cell survival post UV exposure. After exposure, one time point was collected immediately to assess iCPDs, whereas more dishes were incubated in cell culture medium, inside the cell culture incubator, for various time points to be collected post UV to assess dCPDs. For dCPD induction, it is important that the cell culture incubator is not opened for at least 30 min (the first time point post UV) to avoid possible interference from the CO2/O2 ratio, which will be altered upon opening the incubator doors. Cells were collected by scraping and washed once with PBS, which was followed by DNA isolation using a Quick DNA miniprep Kit (Cat. D3024, Zymo Research, Irvine, CA, USA). CPDs were assessed using our previously established DNA ELISA protocols. In brief, ELISA was performed using mouse monoclonal Anti-CPD (Cat. CAC-NM-DND-001, Clone TDM-2, CosmoBio, Inc., Carlsbad, CA, USA). Flat-bottom, 96-well plates (Cat. 2801, Thermo Scientific, Waltham, MA, USA) were coated overnight with 50 µL of protamine sulphate (0.005–0.05%, Cat. P3369, Sigma, St. Lois, MO, USA) in distilled water. After washing twice with water, heat-denatured DNA was plated in triplicates from each sample, into the protamine sulphate coated plate wells (50–100 ng/well in 50 µL PBS) and incubated overnight at 37 °C. The plates were washed 5 times with 200 µL of PBST (PBS containing 0.05% Tween-20 Cat. P7949, Sigma), and blocked with 2–4% FBS in PBST (blocking buffer) for 1 h at room temperature (RT). The plates were incubated with 100 µL of a 1:1000 dilution of anti-CPD antibody in blocking buffer, and incubated for 30 min at 37 °C, which was followed by 5 washes in PBST. Next, the plates were incubated with 100 µL of a 1:2000 dilution of Biotin-F(ab’)2 fragment of anti-mouse IgG(H+L) (Cat. B-2763, Life Technologies) in blocking buffer for 30 min at 37 °C. Detection was conducted using 100 µL of a 1:10,000 dilution of Streptavidin HRP (Cat. 434323, Life Technologies) in 2% FBS for 30 min at 37 °C, which was followed by 5 washes. The plates were washed once with citrate phosphate buffer (24.3 mM citric acid monohydrate, J.T. Baker Cat. 0110-01- and 51.4-mM sodium phosphate dibasic, Sigma Cat. S7907, pH 5.0). The o-phenylene diamine dihydrochloride (Cat. P8287-50TAB, Sigma) was used as a HRP substrate at 400 µg/mL in citrate phosphate buffer for 5–10 min. A measure of 50 µL of 2M H2SO4 was used to stop the reaction as soon as the color developed (5–10 min incubation in substrate), and OD was measured at 490 nm using a Synergy-2 multimode microplate reader (BioTek, Winooski, VT, USA).

[5] = system: incident CPDs (iCPDs) in albino C57BL/6 melanocytes (Mel-c); test: iCPD assessment by DNA ELISA after ssUV, Mel-c; type: cell-based, mouse; conditions: various doses up to 1 mg/mL, 24 h, Figure 4B
From the text: as §1

[6] = system: incident CPDs (iCPDs) in NBHF cells; test: iCPD assessment by DNA ELISA after ssUV, NBHF; type: cell-based, human
From the text: as §3

[7] = system: Xpa, Xpc, Mitf, Xrcc1 expression in Mel-a; test: qPCR expression of NER pathway genes, Mel-a; type: cell-based, mouse
Description: as §2

melanin in Mel-a cells = test: Melanin amount in melanocytes cultured in varied tyrosine; type: cell-based; conditions: 50 µg/mL
Description: The amino acid tyrosine is essential for melanin synthesis, and it is added to the OptiMem medium at a proprietary concentration by ThermoFisher. Assuming this concentration to be “100% tyrosine”, we purchased the “custom-prepared, tyrosine-free” medium from ThermoFisher. This medium lacked tyrosine or its precursors, which include L-tyrosine, L-tyrosine-2Na-2H2O, L-tyrosine-Di-sodium salt, Hypoxanthine, and Sodium Hypoxanthine. Mel-a (pigmented mouse melanocyte) cells were cultured in regular cell culture medium containing 100% tyrosine, and in medium containing 20%, 4%, or 0% of the total tyrosine amount. This was achieved by diluting the regular OptiMem with the one containing no tyrosine (tyrosine-free, 0% tyrosine). […] Since the cells cultured in 0%-tyrosine medium lost their pigment over time (Figure 5) and the cell pellets were almost white or opaque in color, we assumed that the minimal amount of tyrosine from the horse serum used in the cell culture medium was not sufficient for melanin synthesis. To estimate the amount of melanin, 3 × 10^6–5 × 10^6 cells were lysed in 1M sodium hydroxide (NaOH) by heating them at 100 °C for 1–2 h, which was followed by a 10-min spin at 14,000 rpm at room temperature to remove any cell debris. Absorbance of the supernatant was recorded using the supernatant in a 96-well plate in triplicates from each sample, at 460–490 nm. Synthetic melanin (Cat. M0418, Sigma) was dissolved in methanol and used as a positive control to generate standard curves to estimate the melanin amount in cell lysates. The number of cells in each pellet was used as a normalization factor for each experimental condition. In a complementary experiment, cells were first bleached out of melanin completely by culturing them in tyrosine-free medium, followed by 100/20/4/0% tyrosine (not shown) treatment. This seemed to be cytotoxic, comparatively more so in 100% tyrosine, probably owing to the toxicity of the sudden rush of melanin derivatives and the oxidative stress generated during melanin synthesis.

[8] = system: nitrotyrosine / nitric oxide synthase (NOS) activity in Mel-a melanocytes; test: Immunofluorescence for nitrotyrosine (marker of NOS activity); type: cell-based, mouse; conditions: 50 µg/mL, 24–36 h
Description: Posttranslational modification nitrotyrosine was used as a marker of nitric oxide synthase (NOS) activity. Melanocytes were cultured on collagen-coated, glass-bottom dishes (cat. P35G-1.5-14-C, MatTek, Ashland, MA, USA). After various treatments, cells were fixed with 4% formaldehyde for 10 min at RT, washed with PBS, and permeabilized with 0.5% Triton-X in PBS for 10 min. After blocking for non-specific antibody binding using 5% goat serum (Cat. 16210064, ThermoFisher Scientific) and 1% globulin free BSA (Cat. 001-000-161, Jackson ImmunoResearch, West Grove, PA, USA) in 0.1% Triton-x in PBS (blocking buffer) for 2 h at room temperature, cells were incubated with 1:1000 dilution of anti-nitrotyrosine antibody (Cat. A-21285, ThermoFisher Scientific) overnight at 4 °C. Detection was conducted using Alexa Fluor 488 Goat Anti-rabbit IgG (Cat. A-11008, Life Technologies). Imaging was performed using a ZEISS Axio Observer microscope. Approximately 5–10 images per condition, with ~70–100 cells per image, were quantitated for nitrotyrosine fluorescence using ImageJ software.

With `COc1ccc(CC(C(C)=O)C(C)=O)cc1` [MBPD, 3-(4-Methoxy-benzyl)-pentane-2,4-dione] the “Inhibition of delayed CPDs (dCPDs)” value ([1]; Mel-a, 50 µg/mL, 24–36 h preincubation, 0.5 to 4 h post ssUV, Figure 4C) was “abrogated the delayed CPDs completely”, the “Inhibition of total CPDs (iCPDs + dCPDs)” value ([1]; extrapolated from 50% iCPD reduction and complete dCPD blockade, pigmented melanocytes) was ~ 80% and 70–80% and the “iCPD inhibition” value [2] was “did not show any effect”. For the same molecule, the “Gene expression of Xrcc1” value [3] was “remained unaffected”, the “Gene expression of Xpa, Xpc and Mitf (NER pathway)” value ([3]; no UV) was “upregulated” and the “Blockade of iCPDs” value ([4]; 50 µg/mL, 24-h preincubation, 18 kJ/m^2 ssUV) was about 50%. The “iCPD inhibition across doses” value [4] was “blocked iCPD generation in a dose-dependent manner”, the “iCPD inhibition across doses” value [5] was “no significant impact” and the “Blockade of iCPDs” value ([6]; 50 µg/mL, 24 h preincubation, 18 kJ/m^2 ssUV) was ~ 50%. The inhibition at 10 µg/mL ([6]; Homo sapiens, 10 ug/mL, Figure 3C, read-out: Inhibition of iCPD formation) was 30 to 40%, the “iCPD inhibition across doses” value ([6]; various doses, Figure 3C / Supplementary Figure S2B) was “dose-dependent manner” and the “NER pathway gene expression post UV exposure” value ([7]; 200 µg/ml, 24 h, then 18 kJ/m2 ssUV, various time points, relative to UV-induced upregulation) was “elevated slightly”. The “Gene expression of Xpa, Xpc and Mitf (NER pathway)” value ([7]; 24 h incubation, no UV, qPCR) was “upregulated”, the “Gene expression of Xrcc1” value ([7]; 24 h incubation, qPCR) was “remained unaffected” and the “Reduction in melanin (pigmentation)” value (melanin in Mel-a cells; 20% or less tyrosine, ~2–3 weeks) was over 50%. For the same molecule, the “Reduction in melanin concentration” value (melanin in Mel-a cells; 100% tyrosine, ~2–3 weeks) was ~ 25%, the “Cell death on longer incubation” value (melanin in Mel-a cells; 2–3 weeks incubation) was 10–15% and the “Amount of nitrotyrosine (NOS activity marker)” value [8] was “reduced the amount of nitrotyrosine”.
With `COc1ccc(CCC(C)=O)cc1` [RKME, 4-(4-Methoxyphenyl)-butan-2-one, reference compound] the “iCPD inhibition” value [2] was “did not show any effect”, the “iCPD inhibition across doses” value [4] was “did not show any impact” and the “iCPD inhibition across doses” value ([4]; listed as RMKE) was “completely abrogated the ability of the molecule to prevent CPD formation”. For the same molecule, the “iCPD inhibition across doses” value [5] was “did not show any impact”.
`COc1cc(CC(C(C)=O)C(C)=O)cc(OC)c1OC` [TMBPD, 3-(3,4,5-trimethoxy-benzyl)-pentane-2,4-dione] was tested, and the “Inhibition of iCPD formation” value ([6]; 50 µg/mL, 24 h preincubation, 18 kJ/m^2 ssUV, Figure 3B) was “inhibited iCPD formation to varying extents”.
